Data on 38 compounds can be found in patent EP4570793A1, “5-HT2A RECEPTOR INVERSE AGONIST, AND PREPARATION METHOD THEREFOR AND USE THEREOF” (Luye Innomind Pharma Shijiazhuang Co., Ltd., priority 2022, dated 2024).

Each structure is given as a SMILES string. Read-outs that look alike come from different tables or passages of the source.

The target of one data set is 5-HT2A receptor (Homo sapiens, UniProt P28223). Kind of data set: Assay for 5-HT2A receptor inverse agonist activity (NIH3T3-5-HT2A R cells, Bright-Glo luciferase, cell inhibition rate).
A short description of data set [1]: In-vitro liver microsomal stability (dog). Format: in vitro ADME. The following applies: Dog liver microsomes, 1 µM, 0.5 mg/mL, NADPH. The procedure: (§1) Test Example 3. Evaluation of In-Vitro Liver Microsomal Stability
(§2) • 1) Preparation of test sample working solution: A test sample was diluted to 100 µM with methanol. • 2) Preparation of liver microsome working solution: Liver microsomes were diluted to 0.56 mg/mL with 100 mM phosphate-buffered saline. • 3) Preparation of working solution of reduced nicotinamide adenine dinucleotide phosphate (NADPH): A proper amount of NADPH was weighed out and diluted to 20 mM with phosphate-buffered saline, and then an equal volume of a 60 mM MgCl2 solution was added. • 4) Preparation of stop solution: Tolbutamide was diluted to 20 ng/mL with acetonitrile to serve as a stop solution containing an internal standard.
• 1) Anti-adsorption EP tubes for incubation were prepared and labeled with species, test samples, control samples (testosterone and dextromethorphan), time points (0 min, 5 min, 10 min, 20 min, 30 min, 60 min, Blank60, and NCF60), etc. • 2) 2 µL of test or control sample working solution and 178 µL of liver microsome working solution were added to each tube. For the Blank tube, 2 µL of acetonitrile was added instead of the test sample. The tubes were preincubated in a water bath at 37 °C for about 10 min, with 3 replicates set up for each sample. • 3) After the pre-incubation was completed, 20 µL of NADPH working solution was added to each tube except for the 0 min and NCF60 tubes to start the reaction. For the NCF60 tube, 20 µL of phosphate-buffered saline (containing 30 mM MgCl2) was added. In the incubation system, the final concentration of the test or control sample was 1 µM, the final concentration of liver microsomes was 0.5 mg/mL, the final concentration of NADPH was 1 mM, and the final concentration of MgCl2 was 3 mM. • 4) For the 0 min sample, 600 µL of stop solution was added, followed by the addition of the NADPH working solution. For the other samples, after each of them was incubated for the corresponding time, 600 µL of stop solution was added to stop the reaction. • 5) After the reaction was stopped, each sample was vortexed for 30 s and then centrifuged at 13500 rpm for 10 min. Then, 100 µL of the supernatant was transferred to an EP tube, and 100 µL of Milli-Q water was added. The mixture was well mixed by vortexing and analyzed by LC-MS/MS. • 6) Testosterone and dextromethorphan were used as positive control samples under the same conditions to assess the stability and reliability of the system. […]

Data set [2] is described as follows: In-vitro liver microsomal stability (human). It is filed as in vitro ADME. The following applies: Human liver microsomes, 1 µM, 0.5 mg/mL, NADPH. How it is done: as §1, §2
• 1) Anti-adsorption EP tubes for incubation were prepared and labeled with species, test samples, control samples (testosterone and dextromethorphan), time points (0 min, 5 min, 10 min, 20 min, 30 min, 60 min, Blank60, and NCF60), etc. • 2) 2 µL of test or control sample working solution and 178 µL of liver microsome working solution were added to each tube. For the Blank tube, 2 µL of acetonitrile was added instead of the test sample. The tubes were preincubated in a water bath at 37 °C for about 10 min, with 3 replicates set up for each sample. • 3) After the pre-incubation was completed, 20 µL of NADPH working solution was added to each tube except for the 0 min and NCF60 tubes to start the reaction. For the NCF60 tube, 20 µL of phosphate-buffered saline (containing 30 mM MgCl2) was added. In the incubation system, the final concentration of the test or control sample was 1 µM, the final concentration of liver microsomes was 0.5 mg/mL, the final concentration of NADPH was 1 mM, and the final concentration of MgCl2 was 3 mM. • 4) For the 0 min sample, 600 µL of stop solution was added, followed by the addition of the NADPH working solution. For the other samples, after each of them was incubated for the corresponding time, 600 µL of stop solution was added to stop the reaction. • 5) After the reaction was stopped, each sample was vortexed for 30 s and then centrifuged at 13500 rpm for 10 min. Then, 100 µL of the supernatant was transferred to an EP tube, and 100 µL of Milli-Q water was added. The mixture was well mixed by vortexing and analyzed by LC-MS/MS. • 6) Testosterone and dextromethorphan were used as positive control samples under the same conditions to assess the stability and reliability of the system.
Table 2: Test data for the compounds of the present disclosure in human and rat liver microsomes

The target in the next data set is hERG potassium channels (Homo sapiens, UniProt Q12809). Kind of data set: cell-based.
Where [3] appears, read: 5-HT2A inverse agonist activity IC50 (nM), NIH3T3-5HT2A R cells, 120 h, luminescence.

Chain of hERG potassium channels (Q12809 whole entry): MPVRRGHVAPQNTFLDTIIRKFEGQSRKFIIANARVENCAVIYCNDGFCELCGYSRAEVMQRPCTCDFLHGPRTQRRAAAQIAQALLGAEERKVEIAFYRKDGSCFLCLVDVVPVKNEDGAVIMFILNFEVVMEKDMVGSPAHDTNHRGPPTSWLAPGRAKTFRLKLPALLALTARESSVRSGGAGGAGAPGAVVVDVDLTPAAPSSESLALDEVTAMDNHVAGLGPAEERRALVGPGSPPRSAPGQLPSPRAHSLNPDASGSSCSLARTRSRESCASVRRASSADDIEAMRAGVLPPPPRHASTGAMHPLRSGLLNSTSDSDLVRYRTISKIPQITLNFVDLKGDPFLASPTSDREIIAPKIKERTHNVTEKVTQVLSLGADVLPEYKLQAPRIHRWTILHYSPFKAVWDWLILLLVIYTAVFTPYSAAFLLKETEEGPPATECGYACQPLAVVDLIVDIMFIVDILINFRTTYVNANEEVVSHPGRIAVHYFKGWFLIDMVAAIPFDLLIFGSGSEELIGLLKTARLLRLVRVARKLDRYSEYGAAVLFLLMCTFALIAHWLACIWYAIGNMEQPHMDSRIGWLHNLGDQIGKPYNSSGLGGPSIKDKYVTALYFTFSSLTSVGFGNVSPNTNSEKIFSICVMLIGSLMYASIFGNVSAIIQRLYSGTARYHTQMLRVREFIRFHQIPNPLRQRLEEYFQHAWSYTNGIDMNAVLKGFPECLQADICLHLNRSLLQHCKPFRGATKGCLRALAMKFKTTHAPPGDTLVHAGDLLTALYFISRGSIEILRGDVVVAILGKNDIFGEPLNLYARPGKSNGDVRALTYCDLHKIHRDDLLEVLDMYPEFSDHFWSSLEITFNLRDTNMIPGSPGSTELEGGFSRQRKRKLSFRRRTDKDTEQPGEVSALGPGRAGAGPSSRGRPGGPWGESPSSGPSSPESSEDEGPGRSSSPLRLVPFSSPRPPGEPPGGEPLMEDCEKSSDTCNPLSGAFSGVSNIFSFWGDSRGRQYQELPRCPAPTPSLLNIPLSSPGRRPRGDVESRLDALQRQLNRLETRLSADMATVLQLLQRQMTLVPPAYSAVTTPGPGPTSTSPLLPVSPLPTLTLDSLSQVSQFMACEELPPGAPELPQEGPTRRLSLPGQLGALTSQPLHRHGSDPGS
Chain of 5-HT2A receptor (P28223 whole entry): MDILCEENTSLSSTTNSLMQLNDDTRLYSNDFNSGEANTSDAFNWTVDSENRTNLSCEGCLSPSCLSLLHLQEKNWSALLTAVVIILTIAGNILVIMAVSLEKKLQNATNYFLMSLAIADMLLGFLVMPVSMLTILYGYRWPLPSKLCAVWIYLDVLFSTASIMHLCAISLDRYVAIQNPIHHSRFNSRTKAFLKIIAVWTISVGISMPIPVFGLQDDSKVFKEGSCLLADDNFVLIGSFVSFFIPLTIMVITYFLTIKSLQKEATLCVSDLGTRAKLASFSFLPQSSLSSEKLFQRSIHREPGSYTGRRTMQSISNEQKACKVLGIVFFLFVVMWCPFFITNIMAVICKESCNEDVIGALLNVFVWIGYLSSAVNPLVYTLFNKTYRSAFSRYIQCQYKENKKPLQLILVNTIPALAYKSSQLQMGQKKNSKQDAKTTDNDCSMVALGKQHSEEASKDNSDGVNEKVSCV
Protocol for 5-HT2A receptor: Assay for 5-HT2A Receptor Inverse Agonist Activity
• Cell line: adherent cells NIH3T3-5-HT2A R • Cell culture medium: DMEM + 10% FBS (purchased from GBICO) • Cell culture plate: 96-well white/clear bottom plate (purchased from Perkin Elmer) • Detection kit: Bright-Glo™ Luciferase (purchased from Promega) • Detection instrument: BioTek multimode microplate reader
NIH3T3-5HT2A R cells in the logarithmic growth phase were seeded into a 96-well white/clear bottom plate at a density of 1000 cells/well and then cultured overnight in an incubator at 37 °C with 5% CO2. […] Duplicate wells were set up for each concentration. […] After the drug addition, the cells were cultured in the incubator at 37 °C with 5% CO2 for another 120 h. On the sixth day, a Bright-Glo™ Luciferase reagent was added to the cells in a volume equal to that of the cell culture medium. The plate was then incubated in the dark at room temperature for 20 min, with the plate shaker vibrating once every 5 min. The luminescence intensity was detected using a microplate reader, and the cell inhibition rate was calculated. Data were processed using GraphPad Prism 7.0 to obtain the cell inhibition rate curve and calculate IC50.
Protocol for hERG potassium channels: • Species & strain: CHO-hERG cell line (Chinese hamster ovary cells stably expressing hERG channels) • Culture medium: 90% F12, 10% fetal bovine serum, 100 µg/mL G418, and 100 µg/mL Hygromycin B • Culture conditions: incubator at 37 °C with 5% CO2 • Cryopreservation condition: liquid nitrogen
On the day of the test, the compound was diluted with DMSO to an intermediate concentration. Then, 10 µL of the intermediate-concentration compound was transferred to 4990 µL of extracellular fluid, achieving a 500-fold dilution to obtain the final concentration to be tested.
hERG potassium channel currents were recorded at room temperature by the whole-cell patch clamp technique in the CHO (Chinese hamster ovary) cells stably expressing hERG potassium channels. Glass microelectrodes were formed by pulling a glass electrode blank (BF150-86-10, Sutter) using a puller. The tip resistance after perfusion of electrode internal solution was about 2-5 MΩ. The glass microelectrodes could be connected to a patch clamp amplifier after being inserted into amplifier probes. The clamping voltage and data recording were controlled and recorded by a computer with a pClamp 10 software, with a sampling frequency of 10 kHz and a filtering frequency of 2 kHz. After achieving the whole-cell recording, the cells were clamped at -80 mV. The step voltage evoking hERG potassium current (IhERG) was changed from -80 mV to +20 mV by applying a 2 s depolarization voltage, followed by repolarization to -50 mV for 1 s, and then returned to -80 mV. This voltage stimulation was applied every 10 s, and after it was determined that the hERG potassium currents were stable (1 min), the administration process was started. Each test concentration of the compound was applied for at least 1 min, and at least 2 cells (n ≥ 2) were tested for each concentration.

Consider `CN1CCC(N(Cc2ccc(F)cc2)C(=O)NCc2ccc(OCC(F)(F)F)nc2)C2(CC2)C1` (single isomer, unassigned) [Compound 83B], for which the IC50 on 5-HT2A receptor (setting [3]) came out at 211 nM. This counts as sub-micromolar.

Regarding `CN1CCC(N(Cc2ccc(F)cc2)C(=O)NCc2ccc(OCC(F)(F)F)nc2)C2(CC2)C1` (single isomer, unassigned) [Compound 83A], the IC50 at 5-HT2A receptor (setting [3]) was 10.4 nM. On the same count and under the same terms, under `CN1CCC(N(Cc2ccc(F)cn2)C(=O)NCc2ccc(OCC(F)(F)F)nc2)C(C)(C)C1` (single isomer, unassigned) [Compound 49B] stands > 1000 nM; under `CCN1CC[C@@H](N(Cc2ccc(F)cn2)C(=O)NCc2ccc(OCC(F)(F)F)nc2)[C@@H](F)C1` (single isomer, unassigned) [Compound 69A], > 1000 nM. For `CN1CCC(N(Cc2ccc(F)cn2)C(=O)NCc2ccc(OCC3CC3(C)C)cn2)CC1` (stereo not drawn) [Compound 4], the IC50 at 5-HT2A receptor is > 1000 nM.

Turning to `CN1C2CCC1CC(N(Cc1ccc(F)cn1)C(=O)NCc1ccc(OCC(F)(F)F)nc1)C2` (stereo not drawn) [Compound 79], the IC50 on 5-HT2A receptor is 771 nM. That is a sub-micromolar value. With `CN1CC[C@H](N(Cc2ccc(F)cc2)C(=O)NCc2ccc3ncccc3c2)[C@H](F)C1` [Compound 86B], the half-inhibitory concentration (IC50) on 5-HT2A receptor worked out at 36.8 nM.

For `CN1CCC(N(Cc2ccc(F)cn2)C(=O)NCc2ccc(OCC(F)(F)F)nc2)CC1` [Compound 5], the “Remaining amount% at 60 min” value in data set [1] came out at 99.8%; in data set [2] it was 99.9%. At 5-HT2A receptor (setting [3]), this compound came in with an IC50 of 13.1 nM.

For the compound `CN1CCC(N(Cc2ccc(F)cn2)C(=O)NCc2ccc(OCC(F)(F)F)nc2)C(F)(F)C1` (single isomer, unassigned) [Compound 46A], the “Remaining amount% at 60 min” value in data set [1] amounted to 40.77%; in data set [2], 1.21%. In addition, the IC50 at 5-HT2A receptor (setting [3]) was > 1000 nM. On 5-HT2A receptor, `CN1CCC(N(Cc2ccc(F)cn2)C(=O)NCc2ccc3ccccc3c2)CC1` [Compound 61] registered an IC50 of 79.2 nM. In turn, `[2H]C([2H])([2H])N1CC[C@H](N(Cc2ccc(F)cn2)C(=O)NCc2ccc(OCC(F)(F)F)nc2)[C@H](F)C1` (single isomer, unassigned) [Compound 72B] came in with an IC50 on 5-HT2A receptor (setting [3]) of 43.7 nM. For the compound `CN1CC[C@@H](N(Cc2ccc(F)cc2)C(=O)NCc2ccc3ncccc3c2)[C@@H](F)C1` [Compound 86A], the IC50 at 5-HT2A receptor is > 1000 nM. On to `CN1CCC(N(Cc2ccc(F)cn2)C(=O)NCc2ccc(OCC3CC3)cn2)CC1` [Compound 3], for which the “Remaining amount% at 60 min” value in data set [1] came out at 100.0%; in data set [2], 94.1%. This compound showed an IC50 on 5-HT2A receptor of 149 nM. For `CC(C)N1CC[C@@H](N(Cc2ccc(F)cn2)C(=O)NCc2ccc(OCC(F)(F)F)nc2)[C@@H](F)C1` (single isomer, unassigned) [Compound 70A], on 5-HT2A receptor (setting [3]), the IC50 was > 1000 nM. Regarding `CN1CCC(N(Cc2ccc(F)cn2)C(=O)NCc2ccc3c(c2)C=CC3)CC1` [Compound 59], the IC50 on hERG potassium channels stood at 1480 nM; on 5-HT2A receptor it was 86.1 nM. At 5-HT2A receptor (setting [3]), `[2H]C([2H])([2H])N1CC[C@@H](N(Cc2ccc(F)cn2)C(=O)NCc2ccc(OCC(F)(F)F)nc2)[C@@H](F)C1` (single isomer, unassigned) [Compound 72A] showed an IC50 of 416 nM.

Consider `CN1CC[C@@H](N(Cc2ccc(F)cc2)C(=O)NCc2ccc3c(ccn3C)c2)[C@@H](F)C1` (single isomer, unassigned) [Compound 85A], for which the IC50 at 5-HT2A receptor (setting [3]) was > 1000 nM. In the case of `CN1CCC(N(Cc2ccc(F)cn2)C(=O)NCc2ccc3c(c2)CCC3)CC1` [Compound 60], the IC50 on 5-HT2A receptor amounted to 64.4 nM. Take `O=C(NCc1ccc(OCC(F)(F)F)nc1)N(Cc1ccc(F)cn1)C1CCNCC1F` (single isomer, unassigned) [Compound 56A]: the IC50 against hERG potassium channels is 15500 nM; on 5-HT2A receptor (setting [3]), > 1000 nM.

The compound `CN1CCC(N(Cc2ccc(F)cn2)C(=O)NCc2ccc(OCC(F)(F)F)nc2)C(C)(C)C1` (single isomer, unassigned) [Compound 49A] returned an IC50 on 5-HT2A receptor (setting [3]) of 105 nM. As for `CC(C)COc1ccc(CNC(=O)N(Cc2ccc3ncccc3c2)C2CCN(C)CC2)cc1` [Compound 7], the results for the IC50 at hERG potassium channels and on 5-HT2A receptor were 1320 nM and > 1000 nM, respectively. `CC(C)N1CC[C@H](N(Cc2ccc(F)cn2)C(=O)NCc2ccc(OCC(F)(F)F)nc2)[C@H](F)C1` (single isomer, unassigned) [Compound 70B] gave an IC50 at 5-HT2A receptor (setting [3]) of 280 nM. `CN1CC[C@H](N(Cc2ccc(F)cc2)C(=O)NCc2ccc3c(ccn3C)c2)[C@H](F)C1` (single isomer, unassigned) [Compound 85B] showed an IC50 at 5-HT2A receptor (setting [3]) of 88.7 nM. In turn, `CN1CCC(N(Cc2ccc(F)cn2)C(=O)NCc2ccc3sccc3c2)CC1` [Compound 58] gave an IC50 on 5-HT2A receptor of 41 nM. As to `CN1CCC(N(Cc2ccc(F)cn2)C(=O)NCc2ccc3occc3c2)CC1` [Compound 57], the IC50 against hERG potassium channels was 1440 nM; at 5-HT2A receptor (setting [3]), 51.9 nM. For `Cc1cc(CN(C(=O)NCc2ccc(OCC(F)(F)F)nc2)[C@@H]2CCN(C)C[C@@H]2F)nn1C` [Compound 82A], at 5-HT2A receptor, the IC50 was > 1000 nM. As for `CN1CCC(N(Cc2ccc(F)cn2)C(=O)NCc2ccc3nc[nH]c3c2)CC1` [Compound 11], the IC50 at 5-HT2A receptor worked out at 672 nM.

In the case of `CN1CCC(N(Cc2ccc(F)cn2)C(=O)NCc2ccc3c(c2)c(C(F)(F)F)cn3C)CC1` [Compound 84], on 5-HT2A receptor, the IC50 is > 1000 nM. In the case of `CN1CCC(N(Cc2ccc(F)cn2)C(=O)NCc2cnc(OC3CC(F)(F)C3)c(F)c2)CC1` [Compound 19], the “Remaining amount% at 60 min” value in data set [1] stood at 78.39%; in data set [2], 72.49%. The same compound displayed an IC50 at 5-HT2A receptor of 33.1 nM. At 5-HT2A receptor, `Cc1cc(CN(C(=O)NCc2ccc(OCC(F)(F)F)nc2)[C@H]2CCN(C)C[C@H]2F)nn1C` [Compound 82B] had an IC50 of 664 nM. In other words, the sub-micromolar range.

For `CN1CCC(N(Cc2ccc(F)cn2)C(=O)NCc2ccc3c(c2)c(F)cn3C)CC1` [Compound 13], at 5-HT2A receptor, the IC50 worked out at 184 nM.

Regarding `CN1CCC(N(Cc2ccc(F)cn2)C(=O)NCc2ccc(OC3CC(F)(F)C3)nc2)CC1` [Compound 6], the “Remaining amount% at 60 min” value in data set [1] is on record as 98.8%; in data set [2], 90.8%. The compound further gave an IC50 on 5-HT2A receptor (setting [3]) of 25.4 nM. Regarding `CCN1CC[C@H](N(Cc2ccc(F)cn2)C(=O)NCc2ccc(OCC(F)(F)F)nc2)[C@H](F)C1` (single isomer, unassigned) [Compound 69B], at 5-HT2A receptor (setting [3]), the IC50 is 156 nM. In the case of `CN1CC2CCC(C1)C2N(Cc1ccc(F)cn1)C(=O)NCc1ccc(OCC(F)(F)F)nc1` (stereo not drawn) [Compound 77], at 5-HT2A receptor, the IC50 was > 1000 nM.

On to `CC(C)COc1ccc(CNC(=O)N(Cc2ccc3ncccc3c2)C2CCN(C)CC2)nc1` [Compound 8], for which the IC50 at 5-HT2A receptor was > 1000 nM. With `CN1CCC(N(Cc2ccc(F)cn2)C(=O)NCc2ccc(OCC(F)(F)F)nc2)C2(CC2)C1` (single isomer, unassigned) [Compound 50B], the IC50 at 5-HT2A receptor (setting [3]) is 381 nM.

As for `O=C(NCc1ccc(OCC(F)(F)F)nc1)N(Cc1ccc(F)cn1)C1CCNCC1F` (single isomer, unassigned) [Compound 56B], the figures for the IC50 against hERG potassium channels and at 5-HT2A receptor (setting [3]) were 12600 nM and 325 nM, respectively. Regarding `CC(C)COc1ccc(CNC(=O)N(Cc2ccc(F)cc2)C2CCN(C)CC2)cc1` [Pimavanserin, reference compound], the figures for the “Remaining amount% at 60 min” value in data set [1] and in data set [2] were 68.5% and 70.7%, respectively.

One may read the IC50 as the concentration that inhibits the measured activity by half. A low value points to greater potency in that assay.
